Results reported in US20240300980A1, “HETEROCYCLIC COMPOUNDS AS KRAS INHIBITOR, AND PREPARATION THEREFOR AND USE THEREOF IN TREATMENT” (SHANGHAI KECHOW PHARMA, INC., priority 2021, published 2024).

System: AGS cells (KRAS^G12D)
Assay: Detection of cell proliferation in vitro by MTT/MTS method (cell activity experiment)
Format: cell-based
Settings: Homo sapiens, AGS, 72 h, AGS cells; MTT/MTS; 3 days of drug treatment; read-out: AGS IC50
Outline: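 After 3-day compound exposure (final DMSO 0.5%), viability of AGS (KRAS G12D) cells, plated 1000/well one day before dosing, was measured at 490 nm following 4 h MTT or MTS incubation. IC50 was fitted from dose–effect curves relative to DMSO-treated wells.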

`C#Cc1c(F)ccc2cc(O)cc(-c3ccc4c(N5C[C@H]6CC[C@@H](C5)N6)nc(OC[C@@]56CCCN5C[C@H](F)C6)nc4n3)c12` [Example 140, 4-(4-((1R,5S)-3,8-diazabicyclo[3.2.1]octan-3-yl)-2-(((2R, 7aS)-2-fluorotetrahydro-1H-pyrrolizin-7a(5H)-yl)methoxy)pyrido[2,3-d]pyrimidin-7-yl)-5-ethynyl-6-fluoronaphthalen-2-ol] and `C#Cc1c(F)ccc2cc(O)cc(-c3ncc4c(N5C[C@H]6CC[C@@H](C5)N6)nc(OC[C@@]56CCCN5C[C@H](F)C6)nc4c3O)c12` [Example 332, 4-((1R,5S)-3,8-diazabicyclo[3.2.1]octan-3-yl)-7-(8-ethynyl-7-fluoro-3-hydroxynaphthalen-1-yl)-2-(((2R,7aS)-2-fluorotetrahydro-1H-pyrrolizin-7a(5H)-yl)methoxy)pyrido[4,3-d]pyrimidin-8-ol] cannot be ordered by IC50: > 2500 nM for the first, > 2500 nM for the second.

First: CC1CCCc2cc(O)cc(-c3c(-c4cn[nH]c4)cc4c(N5C[C@H]6CC[C@@H](C5)N6)nc(OC[C@@]56CCCN5C[C@H](F)C6)nc4c3F)c21 (stereo partly drawn) [Example 376, 4-(4-((1R,5S)-3,8-diazabicyclo[3.2.1]octan-3-yl)-8-fluoro-2-(((2R,7aS)-2-fluorotetrahydro-1H-pyrrolizin-7a(5H)-yl)methoxy)-6-(1H-pyrazol-4-yl)quinazolin-7-yl)-5-methyl-5,6,7,8-tetrahydronaphthalen-2-ol]
Second: CC1CCCc2cc(O)cc(-c3c(F)c4nc(OC[C@@]56CCCN5C[C@H](F)C6)nc(N5C[C@H]6CC[C@@H](C5)N6)c4c4cncn34)c21 (stereo partly drawn) [Example 417, 4-(1-((1R,5S)-3,8-diazabicyclo[3.2.1]octan-3-yl)-5-fluoro-3-(((2R,7aS)-2-fluorotetrahydro-1H-pyrrolizin-7a(5H)-yl)methoxy)imidazo[1′,5′:1,2]pyrido[4,3-d]pyrimidin-6-yl)-5-methyl-5,6,7,8-tetrahydronaphthalen-2-ol]
The IC50 of the first is 2.9-fold higher: 100 nM for the first, 35 nM for the second.

First: C#Cc1c(F)ccc2cc(O)cc(-c3c(Cl)cc4c(N5C[C@H]6CC[C@@H](C5)N6)nc(OC[C@@]56CCCN5C[C@H](F)C6)nc4c3OC3CC3)c12 [Example 330, 4-(4-((1R,5S)-3,8-diazabicyclo[3.2.1]octan-3-yl)-6-chloro-8-cyclopropoxy-2-(((2R,7aS)-2-fluorotetrahydro-1H-pyrrolizin-7a(5H)-yl)methoxy)quinazolin-7-yl)-5-ethynyl-6-fluoronaphthalen-2-ol]
Second: Oc1cc(-c2ccc3c(N4C[C@H]5CC[C@@H](C4)N5)nc(OC[C@@]45CCCN4C[C@H](F)C5)nc3c2F)c2c(F)c(F)ccc2c1 [Example 94, 4-(4-((1R,5S)-3,8-diazabicyclo[3.2.1]octan-3-yl)-8-fluoro-2-(((2R,7aS)-2-fluorotetrahydro-1H-pyrrolizin-7a(5H)-yl)methoxy)quinazolin-7-yl)-5,6-difluoronaphthalen-2-ol]
The IC50 of the first is 130-fold higher: 195 nM for the first, 1.5 nM for the second.

`Oc1cc(Cl)c(C2CC2)c(-c2ncc3c(N4C[C@H]5CC[C@@H](C4)N5)nc(OCC4(CN5CCCC5)CC4)nc3c2F)c1` [Example 10, 3-(4-((1R,5S)-3,8-diazabicyclo[3.2.1]octan-3-yl)-8-fluoro-2-((1-(pyrrolidin-1-ylmethyl)cyclopropyl)methoxy)pyrido[4,3-d]pyrimidin-7-yl)-5-chloro-4-cyclopropylphenol] and `Oc1cc(-c2ncc3c(N4C[C@H]5CC[C@@H](C4)N5)nc(OCC4(CN5CCCC5)CC4)nc3c2F)c2c(F)cccc2c1` [Example 6, 4-(4-((1R,5S)-3,8-diazabicyclo[3.2.1]octan-3-yl)-8-fluoro-2-((1-(pyrrolidin-1-ylmethyl)cyclopropyl)methoxy)pyrido[4,3-d]pyrimidin-7-yl)-5-fluoronaphthalen-2-ol] are within 1.5-fold of each other in IC50: 17 nM for the first, 14 nM for the second.

`C#Cc1c(F)ccc2cc(O)cc(-c3ncc4c(N5C[C@H]6CC[C@@H](C5)N6)nc(OCC56CCCC5N(C)CC6)nc4c3F)c12` (stereo partly drawn) [Example 74, 4-(4-((1R,5S)-3,8-diazabicyclo [3.2.1]octan-3-yl)-8-fluoro-2-((1-methylhexahydrocyclo-penta[b]pyrrol-3a(1H)-yl)methoxy)pyrido[4,3-d]pyrimidin-7-yl)-5-ethynyl-6-fluoronaphthalen-2-ol] and `C#Cc1c(F)ccc2cc(O)cc(-c3ncc4c(N5C[C@H]6CC[C@@H](C5)N6)nc(OCC56CCN(C)C5COC6)nc4c3F)c12` (stereo partly drawn) [Example 75, 4-(4-((1R,5S)-3,8-diazabicyclo[3.2.1]octan-3-yl)-8-fluoro-2-((1-methyltetrahydro-1H-furo[3,4-b]pyrrol-3a(4H)-yl)methoxy)pyrido[4,3-d]pyrimidin-7-yl)-5-ethynyl-6-fluoronaphthalen-2-ol] cannot be ordered by IC50: > 2500 nM for the first, > 2500 nM for the second.

`Oc1cc(-c2ncc3c(N4CC5CCC(C4)C5F)nc(OC[C@@]45CCCN4C[C@H](F)C5)nc3c2F)c2c(F)c(F)ccc2c1` (stereo partly drawn) [Example 37, 5,6-difluoro-4-(8-fluoro-4-((1R,5S,8R)-8-fluoro-3-azabicyclo[3.2.1]octan-3-yl)-2-(((2R,7aS)-2-fluorotetrahydro-1H-pyrrolizin-7a(5H)-yl)methoxy)pyrido[4,3-d]pyrimidin-7-yl) naphthalen-2-ol] and `C#Cc1cccc2cc(O)cc(-c3ncc4c(N5C[C@H]6CC[C@@H](C5)C6(F)F)nc(OC[C@@]56CCCN5C[C@H](F)C6)nc4c3F)c12` [Example 32, 4-(4-((1R,5S)-8,8-difluoro-3-azabicyclo [3.2.1]octan-3-yl)-8-fluoro-2-(((2R,7aS)-2-fluorotetrahydro-1H-pyrrolizin-7a(5H)-yl)methoxy)pyrido[4,3-d]pyrimidin-7-yl)-5-ethynylnaphthalen-2-ol] cannot be ordered by IC50: > 2500 nM for the first, > 2500 nM for the second.

Compared with `C#Cc1c(F)ccc2cccc(-c3ccc4c(N5C[C@H]6CC[C@@H](C5)N6)nc(OC[C@]56CCCN5[C@@H](COC(=O)N(C)C)CC6)nc4c3)c12` [Example 155, ((3R,7aR)-7a-(((4-((1R, 5S)-3,8-diazabicyclo [3.2.1]octan-3-yl)-7-(8-ethynyl-7-fluoronaphthalen-1-yl)quinazolin-2-yl)oxy)methyl)hexahydro-1H-pyrrolizin-3-yl)methyl dimethylcarbamate], `C#Cc1cccc2cc(O)cc(-c3ncc4c(N5CC6CCCC(C5)N6)nc(OC[C@@]56CCCN5C[C@H](F)C6)nc4c3F)c12` [Example 44, 4-(4-(3,9-diazabicyclo [3.3.1]nonan-3-yl)-8-fluoro-2-(((2R,7aS)-2-fluorotetrahydro-1H-pyrrolizin-7a(5H)-yl)methoxy)pyrido[4,3-d]pyrimidin-7-yl)-5-ethynylnaphthalen-2-ol] is 4.6-fold lower in IC50: 215 nM for the first, 47 nM for the second. The second is the more potent here.

First: Cn1cnc2cc(O)cc(-c3ncc4c(N5C[C@H]6CC[C@@H](C5)N6)nc(OC[C@@]56CCCN5C[C@H](F)C6)nc4c3F)c21 [Example 279, 7-(4-((1R,5S)-3,8-diazabicyclo[3.2.1]octan-3-yl)-8-fluoro-2-(((2R,7aS)-2-fluorotetrahydro-1H-pyrrolizin-7a(5H)-yl)methoxy)pyrido[4,3-d]pyrimidin-7-yl)-1-methyl-1H-benzo[d]imidazol-5-ol]
Second: CC1OCCc2cc(O)cc(-c3ncc4c(N5C[C@H]6CC[C@@H](C5)N6)nc(OC[C@@]56CCCN5C[C@H](F)C6)nc4c3F)c21 (stereo partly drawn) [Example 356, 8-(4-((1R,5S)-3,8-diazabicyclo[3.2.1]octan-3-yl)-8-fluoro-2-(((2R,7aS)-2-fluorotetrahydro-1H-pyrrolizin-7a(5H)-yl)methoxy)pyrido[4,3-d]pyrimidin-7-yl)-1-methylisochroman-6-ol]
The IC50 of the first is higher: > 10000 nM for the first, 21 nM for the second.

First: Oc1cc2c(c(-c3ccc4c(N5C[C@H]6CC[C@@H](C5)N6)nc(OC[C@@]56CCCN5C[C@H](F)C6)nc4c3F)c1)C=CCC2 [Example 305, 4-(4-((1R,5S)-3,8-diazabicyclo[3.2.1]octan-3-yl)-8-fluoro-2-(((2R,7aS)-2-fluorotetrahydro-1H-pyrrolizin-7a(5H)-yl)methoxy)quinazolin-7-yl)-7,8-dihydronaphthalen-2-ol]
Second: OCC1CCc2cc(O)cc(-c3ncc4c(N5C[C@H]6CC[C@@H](C5)N6)nc(OC[C@@]56CCCN5C[C@H](F)C6)nc4c3F)c21 (stereo partly drawn) [Example 265, 7-(4-((1R,5S)-3,8-diazabicyclo[3.2.1]octan-3-yl)-8-fluoro-2-(((2R,7aS)-2-fluorotetrahydro-1H-pyrrolizin-7a(5H)-yl)methoxy)pyrido[4,3-d]pyrimidin-7-yl)-1-(hydroxymethyl)-2,3-dihydro-1H-inden-5-ol]
The IC50 of the first is lower: 102 nM for the first, > 10000 nM for the second. The first is the more potent here.

Going from `CCc1c(F)ccc2cc(O)cc(-c3ccc4c(N5C[C@H]6CC[C@@H](C5)S6(=O)=O)nc(OC[C@@]56CCCN5C[C@H](F)C6)nc4c3F)c12` [Example 163, (1R,5S)-3-(7-(8-ethyl-7-fluoro-3-hydroxynaphthalen-1-yl)-8-fluoro-2-(((2R,7aS)-2-fluorotetrahydro-1H-pyrrolizin-7a(5H)-yl)methoxy)quinazolin-4-yl)-8-thia-3-azabicyclo[3.2.1]octane 8,8-dioxide] to `N#Cc1c(OC[C@@]23CCCN2C[C@H](F)C3)nc2cc(-c3cc(O)cc4ccc(F)c(F)c34)ccc2c1N1C[C@H]2CC[C@@H](C1)N2` [Example 175, 4-((1R,5S)-3,8-diazabicyclo[3.2.1]octan-3-yl)-7-(7,8-difluoro-3-hydroxynaphthalen-1-yl)-2-(((2R,7aS)-2-fluorotetrahydro-1H-pyrrolizin-7a(5H)-yl)methoxy)quinoline-3-carbonitrile], the IC50 falls from > 2500 nM to 1330 nM. The second is the more potent here.

`Oc1cc(-c2ncc3c(N4C[C@H]5CC[C@@H](C4)N5)c(C(F)(F)F)c(OC[C@@]45CCCN4C[C@H](F)C5)nc3c2F)c2c(F)c(F)ccc2c1` [Example 198, 4-(4-((1R,5S)-3,8-diazabicyclo[3.2.1]octan-3-yl)-8-fluoro-2-(((2R,7aS)-2-fluorotetrahydro-1H-pyrrolizin-7a(5H)-yl)methoxy)-3-(trifluoromethyl)-1,6-naphthyridin-7-yl)-5,6-difluoronaphthalen-2-ol] was tested, and the IC50 was > 2500 nM.
